Laboratory results as given in ChEMBL document CHEMBL1201862, “PubChem BioAssay data set” (2004).
Activity calls are given as the source filed them.

Key:
[1] = cytotoxicity in HEK-293T cells, dose response, cytotoxicity control for TCR NF-kB inhibitor project, luminescence, T-cell screen hits (AID 489026); type: functional, cell-based;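 note: cells exposed to compound about 14 hours before the viability readout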
[2] = luciferase reporter signal reduction – luminescence, H4-C neuroglioblastoma cells, dose response (AID 2458); type: functional, cell-based;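 note: H4 neuroglioblastoma cells stably carrying a luciferase reporter gene fusion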
[3] = inhibitors of SNCA 5'UTR-driven translation, confirmation, luminescence, H4 neuroglioblastoma cells, dose confirmation (AID 2454); type: functional, cell-based;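 note: H4 neuroglioblastoma cells carrying an alpha-synuclein 5'UTR luciferase reporter; potency for inhibition of the luciferase signal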
[4] = Luminescence Cell-Based Dose Response HTS to Identify Inhibitors of 5'UTR Stem-Loop Driven Prion Protein mRNA Translation in H4 Neuroglioblastoma Cells. [Related pubchem assays: 1827 (Project Summary), 1813 (Primary HTS)]; type: functional
[5] = inhibitors of SNCA 5'UTR-driven reporter translation, confirmation, H4 neuroglioma cells, luminescence (AID 1988); type: functional, cell-based
cells [6] = type: functional, cell-based
[7] = Luminescence-based dose response cell-based high throughput screening assay for cytotoxic compounds using the IEC-6 intestinal epithelial cell line. [Related pubchem assays: 1858 (Summary AID.), 1825 (Counterscreen.), 1907 (Confirmation screen.)]; type: functional
Major prion protein = Major prion protein (Homo sapiens, UniProt P04156); type: functional, cell-based
cells [8] = assay: cells
[9] = inhibitors of intracellular T. cruzi replication, confirmation, NIH3T3 host cells, beta-gal luminescence (AID 2044); type: functional, cell-based;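 note: intracellular parasites grown in NIH/3T3 mouse fibroblasts as host cells; luminescent beta-galactosidase reporter signal from transgenic T. cruzi replicating inside host cells; inhibitors lower the luminescence signal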
Prothrombin = Prothrombin (Homo sapiens, UniProt P00734); assay: Thrombin 1536 HTS Dose Response Confirmation. [Related pubchem assays: 1046 (Thrombin 1536 HTS; hits were confirmed in this assay)]; type: functional
[10] = cytotoxicity toward NIH3T3 fibroblasts, dose response, counter-screen, cell-based, ATP luminescence, mouse fibroblasts (AID 2010); type: functional;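 note: cells exposed to compound for about 90 hours before reading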
cells [11] = assay: cells; remark: listed apart in the source
[12] = target: T1, Heat shock factor protein 1 (Mus musculus, UniProt P38532); assay: inhibition of MG132-induced HSE-luciferase signal, confirmation, cell-based, NIH3T3, luminescence, dose retest (AID 2382); type: functional;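 note: NIH3T3 fibroblasts with HSF1-driven luciferase reporter stressed by proteasome inhibitor MG132; luminescence from HSF1-driven luciferase expression after 8 hours of MG132 stress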
T1 sequence (P38532 whole entry): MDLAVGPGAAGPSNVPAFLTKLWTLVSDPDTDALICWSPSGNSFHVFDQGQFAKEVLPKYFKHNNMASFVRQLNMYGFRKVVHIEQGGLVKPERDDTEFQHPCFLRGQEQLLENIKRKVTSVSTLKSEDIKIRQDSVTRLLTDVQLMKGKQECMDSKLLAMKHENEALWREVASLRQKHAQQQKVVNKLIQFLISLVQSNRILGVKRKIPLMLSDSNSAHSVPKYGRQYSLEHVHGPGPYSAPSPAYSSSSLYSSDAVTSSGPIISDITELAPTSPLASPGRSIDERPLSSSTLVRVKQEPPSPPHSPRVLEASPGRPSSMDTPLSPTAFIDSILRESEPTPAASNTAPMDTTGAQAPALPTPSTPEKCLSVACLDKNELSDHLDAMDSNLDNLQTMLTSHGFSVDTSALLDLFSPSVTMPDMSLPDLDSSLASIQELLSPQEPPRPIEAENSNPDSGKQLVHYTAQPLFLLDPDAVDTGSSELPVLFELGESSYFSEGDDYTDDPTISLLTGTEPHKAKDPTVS

Kallikrein-7 = Kallikrein-7 (Homo sapiens, UniProt P49862); assay: Fluorescence Intensity-based biochemical primary high throughput dose response assay to identify activators of kallikrein-7 (K7) zymogen.
Protein Tat = target: T2, Protein Tat (Human immunodeficiency virus type 1 group M subtype B (isolate HXB2)(HIV-1), UniProt P04608); type: functional;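 note: tat binding to TAR RNA read out by fluorescence polarization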
T2 sequence (P04608 whole entry): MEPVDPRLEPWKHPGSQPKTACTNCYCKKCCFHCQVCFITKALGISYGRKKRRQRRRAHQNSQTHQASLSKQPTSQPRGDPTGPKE

[13] = target: T3, Nuclear receptor subfamily 0 group B member 1 (Homo sapiens, UniProt P51843); type: functional, cell-based;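 note: HEK293T cells transfected with SF-1 and DAX-1 plus StAR promoter luciferase reporter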
T3 sequence (P51843 whole entry): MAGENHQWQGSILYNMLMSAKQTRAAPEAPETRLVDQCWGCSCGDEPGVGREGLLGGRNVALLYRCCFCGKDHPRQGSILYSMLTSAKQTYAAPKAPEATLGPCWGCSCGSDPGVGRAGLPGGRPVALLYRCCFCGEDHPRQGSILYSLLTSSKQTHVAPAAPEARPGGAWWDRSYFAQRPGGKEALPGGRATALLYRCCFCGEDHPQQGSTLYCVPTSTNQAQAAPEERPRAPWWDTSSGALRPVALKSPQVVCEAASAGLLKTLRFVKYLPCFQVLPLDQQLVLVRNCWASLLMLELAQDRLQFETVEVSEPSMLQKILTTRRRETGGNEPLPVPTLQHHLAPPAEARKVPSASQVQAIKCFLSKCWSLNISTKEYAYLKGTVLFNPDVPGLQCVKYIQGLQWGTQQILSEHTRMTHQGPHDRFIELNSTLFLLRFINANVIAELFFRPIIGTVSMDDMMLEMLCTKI

cells [14] = type: functional, cell-based; remark: listed apart in the source
[15] = HEK293 cell cytotoxicity, dose response, cytotoxicity control, plate reader, cherry-picked samples (AID 743446); type: functional, cell-based
[16] = MC4R antagonists, dose response, counter-screen for LGR2 antagonist project, cell-based, plate reader, cherry pick (AID 743444); type: functional;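 note: transfected HEK 293 cells stimulated with alpha-MSH peptide; potency of inhibitors of the alpha-MSH evoked signal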
[17] = LGR2 antagonists, dose response, cell-based, HEK293, CRE-luciferase reporter, cherry pick, set 2 (AID 743343); type: functional;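 note: transfected cells were stimulated with diluted bursicon conditioned medium after compound addition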

CC/C=C/CC(=O)N[C@@H](c1ccccc1)[C@@H](O)C(=O)O[C@H]1C[C@@]2(O)[C@@H](OC(=O)c3ccccc3)C3[C@](C)(C(=O)[C@H](OC(C)=O)C(=C1C)C2(C)C)[C@@H](O)C[C@H]1OC[C@@]31OC(C)=O (stereo not given in full)
IC50 [1]: > 80 µM (inactive) | EC50 [2]: 0.062 µM (active) | EC50 [3]: 0.021 µM (active) | EC50 [4]: < 0.1 µM (active) | EC50 [5]: < 0.1 µM (active) | EC50 (cells [6]): 0.307 µM (active) | IC50 [7]: 0.0795 µM (active)

COc1ccc(-c2nc3c(C)cc(Br)cn3c2Cc2cccc(Cl)c2)cc1OC
IC50 (Major prion protein): 7.52 µM (active) | IC50 (cells [8]): > 138 µM (inactive)

Cc1cc(C)c2c3c(sc2n1)C(c1cccc(F)c1)C(C#N)=C(N)O3 (stereo not given)
EC50 [9]: 0.191 µM (active) | IC50 (Prothrombin): > 50 µM (not active) | EC50 [10]: > 30 µM (not active)

CN(C)CCN(C(=O)c1ccc(S(=O)(=O)N(C)C)cc1)c1nc2cc3c(cc2s1)OCCO3
EC50 [9]: < 0.1 µM (active) | EC50 (cells [11]): 0.069 µM (active) | EC50 [10]: > 30 µM (not active)

OC1CCN(Cc2cccc(Oc3ccccc3)c2)CC1
EC50 [12]: > 195 µM (not active) | EC50 [9]: < 0.1 µM (active) | EC50 (cells [11]): 0.073 µM (active) | EC50 [10]: > 30 µM (not active)

COc1ccc(N(C(=O)c2ccco2)S(=O)(=O)c2ccccc2)cc1
IC50 (Prothrombin): 4.64 µM (active)

O=c1c2cc(N3CCOCC3)ccc2[nH]c(=S)n1CCCN1CCCCC1
EC50 (Kallikrein-7): 29.7 µM (inactive)

CC1=C(C#N)C(=O)N(C)C(C)(C)C1
IC50 (Protein Tat): > 100 µM (active)

COC(=O)c1ccc(COC(=O)CNS(=O)(=O)c2ccccc2)cc1
IC50 (Prothrombin): > 50 µM (not active)

COc1ccc(S(=O)(=O)N2CCOCC2)cc1NC(=O)CSc1ncnc2ccccc12
IC50 (Major prion protein): 2.66 µM (active) | IC50 (cells [8]): > 138 µM (inactive)

Cc1cc(C(=O)CSc2nnc(N)s2)c(C)n1Cc1cccs1
IC50 [13]: > 0.278 µM (active) | IC50 (cells [14]): > 67.5 µM (inactive) | AC50 [15]: > 52 µM (inactive) | AC50 [16]: 4.27 µM (active) | AC50 [17]: 3.93 µM (active)
